How the values were obtained:
Rattus norvegicus [1] = assay: Distribution in muscle of iestrogen-primed immature rats after 1 hour iv administration (120 microCi); conditions: in vivo
Rattus norvegicus [2] = assay: Distribution in lungs of estrogen-primed immature rats after 1 hour iv administration (120 microCi); conditions: in vivo
Rattus norvegicus [3] = assay: Distribution in muscle of iestrogen-primed immature rats after 1 hour iv administration (13 microCi); conditions: in vivo
Rattus norvegicus [4] = assay: Distribution in ovaries of estrogen-primed immature blocked rats after 1 hour iv administration (~/= 17 microg); conditions: in vivo
Rattus norvegicus [5] = assay: Distribution in kidney of estrogen-primed immature rats after 3 hour iv administration (120 micro Ci); conditions: in vivo
Rattus norvegicus [6] = assay: Distribution in uterus/muscle of in estrogen-primed immature rats after 1 hour iv administration (120 microCi); conditions: in vivo
Rattus norvegicus [7] = assay: Distribution in muscle of iestrogen-primed immature rats after 3 hour iv administration (120 micro Ci); conditions: in vivo
Rattus norvegicus [8] = assay: Distribution in brain of estrogen-primed immature rats after 1 hour iv administration (120 microCi); conditions: in vivo
Rattus norvegicus [9] = assay: Distribution in brain of estrogen-primed immature rats after 1 hour iv administration (13 microCi); conditions: in vivo
Rattus norvegicus [10] = assay: Distribution in uterus of estrogen-primed immature blocked rats after 1 hour iv administration (~/= 17 microg); conditions: in vivo
Rattus norvegicus [11] = assay: Distribution in lungs of estrogen-primed immature blocked rats after 1 hour iv administration (~/= 17 microg); conditions: in vivo
Rattus norvegicus [12] = assay: Distribution in lungs of estrogen-primed immature rats after 3 hour iv administration (120 micro Ci); conditions: in vivo
Rattus norvegicus [13] = assay: Distribution in ovaries of estrogen-primed immature rats after 3 hour iv administration (120 micro Ci); conditions: in vivo
Rattus norvegicus [14] = assay: Distribution in uterus/muscle of estrogen-primed immature rats after 3 hour iv administration (120 micro Ci); conditions: in vivo
Rattus norvegicus [15] = assay: Distribution in muscle of iestrogen-primed immature blocked rats after 1 hour iv administration (~/= 17 microg); conditions: in vivo
Rattus norvegicus [16] = assay: Distribution in brain of estrogen-primed immature blocked rats after 1 hour iv administration (~/= 17 microg); conditions: in vivo
Rattus norvegicus [17] = assay: Distribution in lungs of estrogen-primed immature rats after 1 hour iv administration (13 microCi); conditions: in vivo
Rattus norvegicus [18] = assay: Distribution in uterus/blood of estrogen-primed immature blocked rats after 1 hour iv administration (~/= 17 microg); conditions: other tissue
Rattus norvegicus [19] = assay: Distribution in uterus/blood of in estrogen-primed immature rats after 1 hour iv administration (13 microCi); conditions: other tissue
Rattus norvegicus [20] = assay: Distribution in uterus/muscle of estrogen-primed immature blocked rats after 1 hour iv administration (~/= 17 microg); conditions: in vivo
Rattus norvegicus [21] = assay: Distribution in fat of estrogen-primed immature rats after 3 hour iv administration (120 micro Ci); conditions: in vivo
Rattus norvegicus [22] = assay: Distribution in blood of estrogen-primed immature blocked rats after 1 hour iv administration (~/= 17 microg); conditions: in vivo
Rattus norvegicus [23] = assay: Distribution in uterus of estrogen-primed immature rats after 1 hour iv administration (120 microCi); conditions: in vivo
Rattus norvegicus [24] = assay: Distribution in blood of estrogen-primed immature rats after 1 hour iv administration (120 microCi); conditions: in vivo
Rattus norvegicus [25] = assay: Distribution in blood of estrogen-primed immature rats after 1 hour iv administration (13 microCi); conditions: in vivo
Rattus norvegicus [26] = assay: Distribution in uterus/blood of estrogen-primed immature rats after 3 hour iv administration (120 micro Ci); conditions: in vivo
Rattus norvegicus [27] = assay: Distribution in liver of estrogen-primed immature rats after 1 hour iv administration (13 microCi); conditions: in vivo
Rattus norvegicus [28] = assay: Distribution in uterus/muscle of in estrogen-primed immature rats after 1 hour iv administration (13 microCi); conditions: in vivo
Rattus norvegicus [29] = assay: Distribution in uterus/blood of in estrogen-primed immature rats after 1 hour iv administration (120 microCi); conditions: other tissue
Rattus norvegicus [30] = assay: Distribution in ovaries of estrogen-primed immature rats after 1 hour iv administration (13 microCi); conditions: in vivo
Rattus norvegicus [31] = assay: Distribution in uterus of in estrogen-primed immature rats after 1 hour iv administration (13 microCi); conditions: in vivo
Rattus norvegicus [32] = assay: Distribution in bone of iestrogen-primed immature rats after 1 hour iv administration (120 microCi); conditions: in vivo
Rattus norvegicus [33] = assay: Distribution in ovaries of estrogen-primed immature rats after 1 hour iv administration (120 microCi); conditions: in vivo
Rattus norvegicus [34] = assay: Distribution in bone of iestrogen-primed immature rats after 1 hour iv administration (13 microCi); conditions: in vivo
Rattus norvegicus [35] = assay: Distribution in liver of estrogen-primed immature blocked rats after 1 hour iv administration (~/= 17 microg); conditions: in vivo
Rattus norvegicus [36] = assay: Distribution in bone of estrogen-primed immature rats after 3 hour iv administration (120 micro Ci); conditions: in vivo
Rattus norvegicus [37] = assay: Distribution in liver of estrogen-primed immature rats after 3 hour iv administration (120 micro Ci); conditions: in vivo
Rattus norvegicus [38] = assay: Distribution in kidney of estrogen-primed immature rats after 1 hour iv administration (13 microCi); conditions: in vivo
Rattus norvegicus [39] = assay: Distribution in fat of iestrogen-primed immature rats after 1 hour iv administration; conditions: in vivo
Rattus norvegicus [40] = assay: Distribution in brain of estrogen-primed immature rats after 3 hour iv administration (120 micro Ci); conditions: in vivo
Rattus norvegicus [41] = assay: Distribution in fat of iestrogen-primed immature rats after 1 hour iv administration (13 microCi); conditions: in vivo
Rattus norvegicus [42] = assay: Distribution in fat of iestrogen-primed immature blocked rats after 1 hour iv administration (~/= 17 microg); conditions: in vivo
Rattus norvegicus [43] = assay: Distribution in blood of estrogen-primed immature rats after 3 hour iv administration (120 micro Ci); conditions: in vivo
Rattus norvegicus [44] = assay: Distribution in uterus of in estrogen-primed immature rats after 3 hour iv administration; conditions: in vivo
Rattus norvegicus [45] = assay: Distribution in kidney of estrogen-primed immature blocked rats after 1 hour iv administration (~/= 17 microg); conditions: in vivo
Rattus norvegicus [46] = assay: Distribution in bone of iestrogen-primed immature blocked rats after 1 hour iv administration (~/= 17 microg); conditions: in vivo
Rattus norvegicus [47] = assay: Distribution in kidney of estrogen-primed immature rats after 1 hour iv administration (120 microCi); conditions: in vivo
Rattus norvegicus [48] = assay: Distribution in liver of estrogen-primed immature rats after 1 hour iv administration (120 microCi); conditions: in vivo

Compound `CC[C@@H]1C[C@H]2[C@@H]3CCC4=CC(=O)CC[C@@H]4[C@H]3CC[C@]2(C)[C@H]1C(=O)C[18F]` has a Distribution (Rattus norvegicus [1]) of 0.42%, a Distribution (Rattus norvegicus [2]) of 0.47% and a Distribution (Rattus norvegicus [3]) of 0.39%. For the same compound, the Distribution (Rattus norvegicus [4]) was 1%, the Distribution (Rattus norvegicus [5]) was 0.33% and the Distribution (Rattus norvegicus [6]) was 15.98%. It also gave a Distribution (Rattus norvegicus [7]) of 0.12%, a Distribution (Rattus norvegicus [8]) of 0.63% and a Distribution (Rattus norvegicus [9]) of 0.48%. The Distribution (Rattus norvegicus [10]) was 0.38%, the Distribution (Rattus norvegicus [11]) was 0.3% and the Distribution (Rattus norvegicus [12]) was 0.12%. It also gave a Distribution (Rattus norvegicus [13]) of 1.72%, a Distribution (Rattus norvegicus [14]) of 41.16% and a Distribution (Rattus norvegicus [15]) of 0.25%. The Distribution (Rattus norvegicus [16]) was 0.32%, the Distribution (Rattus norvegicus [17]) was 0.57% and the uterus/blood ratio (Rattus norvegicus [18]) was 2.53. For the same compound, the Distribution (Rattus norvegicus [19]) was 21.18%, the Distribution (Rattus norvegicus [20]) was 1.59% and the Distribution (Rattus norvegicus [21]) was 2.78%. For the same compound, the Distribution (Rattus norvegicus [22]) was 0.15%, the Distribution (Rattus norvegicus [23]) was 6.43% and the Distribution (Rattus norvegicus [24]) was 0.25%. The Distribution (Rattus norvegicus [25]) was 0.19%, the uterus/blood ratio (Rattus norvegicus [26]) was 71.2 and the Distribution (Rattus norvegicus [27]) was 2.59%. It also gave a Distribution (Rattus norvegicus [28]) of 11.06%, a Distribution (Rattus norvegicus [29]) of 26.26% and a Distribution (Rattus norvegicus [30]) of 2.37%. For the same compound, the Distribution (Rattus norvegicus [31]) was 4.03%, the Distribution (Rattus norvegicus [32]) was 3.18% and the Distribution (Rattus norvegicus [33]) was 2.86%. The Distribution (Rattus norvegicus [34]) was 3.06%, the Distribution (Rattus norvegicus [35]) was 2.09% and the Distribution (Rattus norvegicus [36]) was 5.55%. The Distribution (Rattus norvegicus [37]) was 1.01%, the Distribution (Rattus norvegicus [38]) was 0.86% and the Distribution (Rattus norvegicus [39]) was 3.56%. It also gave a Distribution (Rattus norvegicus [40]) of 0.14%, a Distribution (Rattus norvegicus [41]) of 4.13% and a Distribution (Rattus norvegicus [42]) of 2.9%. It also gave a Distribution (Rattus norvegicus [43]) of 0.07%, a Distribution (Rattus norvegicus [44]) of 4.63% and a Distribution (Rattus norvegicus [45]) of 0.58%. The Distribution (Rattus norvegicus [46]) was 3.09%, the Distribution (Rattus norvegicus [47]) was 1.05% and the Distribution (Rattus norvegicus [48]) was 3.34%.

Reference: ChEMBL document CHEMBL1124151, “21-[18F]fluoro-16 alpha-ethyl-19-norprogesterone: synthesis and target tissue selective uptake of a progestin receptor based radiotracer for positron emission tomography” (J Med Chem, 1988)
